Measured values: patent US9108944B2, “Androgen receptor modulators and uses thereof” (ARAGON PHARMACEUTICALS, INC., priority 2010, dated 2015)
pIC50: −log10 of the molar value.

Tests used:
[1] = target: T1, AR-VP16 (Homo sapiens, UniProt P10275); experiment: AR-VP16 DNA Binding Assay, antagonist mode (HepG2 cells, 0.1 nM R1881); assay type: cell-based
T1 sequence (P10275 560-920 limits assumed): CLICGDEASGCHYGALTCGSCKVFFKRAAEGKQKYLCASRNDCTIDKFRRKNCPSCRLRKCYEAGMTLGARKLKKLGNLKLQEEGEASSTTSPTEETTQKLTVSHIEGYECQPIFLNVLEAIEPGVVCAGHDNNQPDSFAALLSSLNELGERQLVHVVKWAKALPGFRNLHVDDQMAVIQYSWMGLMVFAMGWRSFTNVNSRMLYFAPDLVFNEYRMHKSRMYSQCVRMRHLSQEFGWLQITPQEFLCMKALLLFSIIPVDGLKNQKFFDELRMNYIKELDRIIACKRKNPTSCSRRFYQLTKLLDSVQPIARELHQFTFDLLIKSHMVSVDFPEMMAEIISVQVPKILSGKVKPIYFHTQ
Outline: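 Transfected HepG2 cells expressing AR-VP16 received serially diluted compound in charcoal-stripped-serum RPMI the day after transfection, with 0.1 nM R1881 (final) added only for antagonist testing. After 48 h, cells were lysed for measurement.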

[2] = target: T1, AR-VP16; experiment: AR-VP16 DNA Binding Assay, agonist mode (HepG2 cells); assay type: cell-based; details: Emax >20x DMSO control = agonist

Row | Structure (SMILES) | pIC50 [1] | ARVP16 DNA Binding Assay (Agonist mode): Agonist? [2]
1 | N#Cc1ncc(N2C(=O)C3(CCC3)N(c3ccc(C(=O)NCc4ccco4)c(F)c3)C2=S)cc1C(F)(F)F [Compound 266, 4-(7-(6-Cyano-5-(trifluoromethyl)pyridin-3-yl)-8-oxo-6-thioxo-5,7-diazaspiro[3.4]octan-5-yl)-2-fluoro-N-(furan-2-ylmethyl)benzamide] | > 6.00 | No (Agonist defined as a compound whose Emax in the ARVP16 DNA Binding Assay (Agonist mode) is >20x DMSO control)
2 | Cc1cc(N2C(=O)C3(CCC3)N(c3ccc(OCCN4CCN(C)CC4)c(F)c3)C2=S)cnc1C#N [Compound 170, 5-(5-(3-Fluoro-4-(2-(4-methylpiperazin-1-yl)ethoxy)phenyl)-8-oxo-6-thioxo-5,7-diazaspiro[3.4]octan-7-yl)-3-methylpicolinonitrile] | > 6.00 | Yes (Agonist defined as a compound whose Emax in the ARVP16 DNA Binding Assay (Agonist mode) is >20x DMSO control)
3 | N#Cc1ncc(N2C(=O)C3(CCC3)N(c3ccc(Oc4ccccc4)cc3)C2=S)cc1C(F)(F)F [Compound 25, 5-(8-Oxo-5-(4-phenoxyphenyl)-6-thioxo-5,7-diazaspiro[3.4]octan-7-yl)-3-(trifluoromethyl)picolinonitrile] | > 6.00 | No (Agonist defined as a compound whose Emax in the ARVP16 DNA Binding Assay (Agonist mode) is >20x DMSO control)
4 | COC(=O)CCCc1ccc(N2C(=S)N(c3cnc(C#N)c(C(F)(F)F)c3)C(=O)C23CCC3)cc1 [Compound 122, Methyl 4-(4-(7-(6-cyano-5-(trifluoromethyl)pyridin-3-yl)-8-oxo-6-thioxo-5,7-diazaspiro[3.4]octan-5-yl)phenyl)butanoate] | < 6.00 | No (Agonist defined as a compound whose Emax in the ARVP16 DNA Binding Assay (Agonist mode) is >20x DMSO control)
5 | O=C1N(c2ccc3nnc(C(F)(F)F)n3n2)C(=S)N(c2ccc(OCCc3ccccn3)cc2)C12CCC2 [Compound 155, 5-(4-(2-(Pyridin-2-yl)ethoxy)phenyl)-6-thioxo-7-(3-(trifluoromethyl)-[1,2,4]triazolo[4,3-b]pyridazin-6-yl)-5,7-diazaspiro[3.4]octan-8-one] | < 6.00 | No (Agonist defined as a compound whose Emax in the ARVP16 DNA Binding Assay (Agonist mode) is >20x DMSO control)
6 | Cc1ccncc1-c1ccc(N2C(=S)N(c3cnc(C#N)c(C)c3)C(=O)C23CCC3)cc1 [Compound 97, 3-Methyl-5-(5-(4-(4-methylpyridin-3-yl)phenyl)-8-oxo-6-thioxo-5,7-diazaspiro[3.4]octan-7-yl)picolinonitrile] | > 6.00 | Yes (Agonist defined as a compound whose Emax in the ARVP16 DNA Binding Assay (Agonist mode) is >20x DMSO control)
7 | CN1CCN(CCOc2cc(N3C(=S)N(c4cnc(C#N)c(C(F)(F)F)c4)C(=O)C34CCC4)ccc2F)CC1 [Compound 166, 5-(5-(4-Fluoro-3-(2-(4-methylpiperazin-1-yl)ethoxy)phenyl)-8-oxo-6-thioxo-5,7-diazaspiro[3.4]octan-7-yl)-3-(trifluoromethyl)picolinonitrile] | < 6.00 | No (Agonist defined as a compound whose Emax in the ARVP16 DNA Binding Assay (Agonist mode) is >20x DMSO control)
8 | Cc1cc(N2C(=O)C3(CCC3)N(c3ccc(-c4ccco4)cc3)C2=S)cnc1C#N [Compound 116, 5-(5-(4-(Furan-2-yl)phenyl)-8-oxo-6-thioxo-5,7-diazaspiro[3.4]octan-7-yl)-3-methylpicolinonitrile] | > 6.00 | No (Agonist defined as a compound whose Emax in the ARVP16 DNA Binding Assay (Agonist mode) is >20x DMSO control)
9 | N#Cc1ncc(N2C(=O)C3(CCC3)N(c3ccc(C(N)=O)c(F)c3)C2=S)cc1C(F)(F)F [Compound 231, 4-(7-(6-Cyano-5-(trifluoromethyl)pyridin-3-yl)-8-oxo-6-thioxo-5,7-diazaspiro[3.4]octan-5-yl)-2-fluorobenzamide] | > 6.00 | No (Agonist defined as a compound whose Emax in the ARVP16 DNA Binding Assay (Agonist mode) is >20x DMSO control)
10 | Cc1cc(N2C(=O)C3(CCC3)N(c3ccc(C(=O)NCC4CCOCC4)c(F)c3)C2=S)cnc1C#N [Compound 311, 4-(7-(6-Cyano-5-methylpyridin-3-yl)-8-oxo-6-thioxo-5,7-diazaspiro[3.4]octan-5-yl)-2-fluoro-N-((tetrahydro-2H-pyran-4-yl)methyl)benzamide] | < 6.00 | No (Agonist defined as a compound whose Emax in the ARVP16 DNA Binding Assay (Agonist mode) is >20x DMSO control)
11 | CNC(=O)c1ccc(N2C(=S)N(c3ccc(C#N)c(C(F)(F)F)n3)C(=O)C23CCC3)cc1F [Compound 35, 4-(7-(5-Cyano-6-(trifluoromethyl)pyridin-2-yl)-8-oxo-6-thioxo-5,7-diazaspiro[3.4]octan-5-yl)-2-fluoro-N-methylbenzamide] | < 6.00 | No (Agonist defined as a compound whose Emax in the ARVP16 DNA Binding Assay (Agonist mode) is >20x DMSO control)
12 | N#Cc1ncc(N2C(=O)C3(CCC3)N(c3ccc(CO)cc3)C2=S)cc1C(F)(F)F [Compound 69, 5-(5-(4-(Hydroxymethyl)phenyl)-8-oxo-6-thioxo-5,7-diazaspiro[3.4]octan-7-yl)-3-(trifluoromethyl)picolinonitrile] | > 6.00 | No (Agonist defined as a compound whose Emax in the ARVP16 DNA Binding Assay (Agonist mode) is >20x DMSO control)
13 | Cc1ccc(-c2ccc(N3C(=S)N(c4cnc(C#N)c(C)c4)C(=O)C34CCC4)cc2)o1 [Compound 7, 3-Methyl-5-(5-(4-(5-methylfuran-2-yl)phenyl)-8-oxo-6-thioxo-5,7-diazaspiro[3.4]octan-7-yl)picolinonitrile] | > 6.00 | No (Agonist defined as a compound whose Emax in the ARVP16 DNA Binding Assay (Agonist mode) is >20x DMSO control)
14 | CN1CCN(CCCNC(=O)c2ccc(N3C(=S)N(c4cnc(C#N)c(C(F)(F)F)c4)C(=O)C34CCC4)cc2F)CC1 [Compound 269, 4-(7-(6-Cyano-5-(trifluoromethyl)pyridin-3-yl)-8-oxo-6-thioxo-5,7-diazaspiro[3.4]octan-5-yl)-2-fluoro-N-(3-(4-methylpiperazin-1-yl)propyl)benzamide] | > 6.00 | No (Agonist defined as a compound whose Emax in the ARVP16 DNA Binding Assay (Agonist mode) is >20x DMSO control)
15 | CNC(=O)c1ccc(N2C(=S)N(c3cnc(C#N)c(C)c3)C(=O)C23CCC3)cc1C [Compound 106, 4-(7-(6-Cyano-5-methylpyridin-3-yl)-8-oxo-6-thioxo-5,7-diazaspiro[3.4]octan-5-yl)-N,2-dimethylbenzamide] | > 6.00 | No (Agonist defined as a compound whose Emax in the ARVP16 DNA Binding Assay (Agonist mode) is >20x DMSO control)
16 | N#Cc1ncc(N2C(=O)C3(CCC3)N(c3ccc(F)c(C(=O)NCCc4ccccn4)c3)C2=S)cc1C(F)(F)F [Compound 239, 5-(7-(6-Cyano-5-(trifluoromethyl)pyridin-3-yl)-8-oxo-6-thioxo-5,7-diazaspiro[3.4]octan-5-yl)-2-fluoro-N-(2-(pyridin-2-yl)ethyl)benzamide] | < 6.00 | No (Agonist defined as a compound whose Emax in the ARVP16 DNA Binding Assay (Agonist mode) is >20x DMSO control)
17 | N#Cc1ncc(N2C(=O)C3(CCC3)N(c3ccc4ncoc4c3)C2=S)cc1C(F)(F)F [Compound 125, 5-(5-(Benzo[d]oxazol-6-yl)-8-oxo-6-thioxo-5,7-diazaspiro[3.4]octan-7-yl)-3-(trifluoromethyl)picolinonitrile] | > 6.00 | No (Agonist defined as a compound whose Emax in the ARVP16 DNA Binding Assay (Agonist mode) is >20x DMSO control)
18 | N#Cc1ncc(N2C(=O)C3(CCC3)N(c3ccc(-c4ccncc4)cc3)C2=S)cc1C(F)(F)F [Compound 18, 5-(8-Oxo-5-(4-(pyridin-4-yl)phenyl)-6-thioxo-5,7-diazaspiro[3.4]octan-7-yl)-3-(trifluoromethyl)picolinonitrile] | > 6.00 | Yes (Agonist defined as a compound whose Emax in the ARVP16 DNA Binding Assay (Agonist mode) is >20x DMSO control)
19 | O=C1N(c2ccc3nnc(C(F)(F)F)n3n2)C(=S)N(c2ccc(O)cc2)C12CCC2 [Compound 2, 5-(4-Hydroxyphenyl)-6-thioxo-7-(3-(trifluoromethyl)-[1,2,4]triazolo[4,3-b]pyridazin-6-yl)-5,7-diazaspiro[3.4]octan-8-one] | < 6.00 | No (Agonist defined as a compound whose Emax in the ARVP16 DNA Binding Assay (Agonist mode) is >20x DMSO control)
20 | N#Cc1ncc(N2C(=O)C3(CCC3)N(c3ccc(C(=O)NCCCN4CCCC4)c(F)c3)C2=S)cc1C(F)(F)F [Compound 237, 4-(7-(6-Cyano-5-(trifluoromethyl)pyridin-3-yl)-8-oxo-6-thioxo-5,7-diazaspiro[3.4]octan-5-yl)-2-fluoro-N-(3-(pyrrolidin-1-yl)propyl)benzamide] | > 6.00 | No (Agonist defined as a compound whose Emax in the ARVP16 DNA Binding Assay (Agonist mode) is >20x DMSO control)
